# In patent US20240041878A1, “APELIN RECEPTOR MODULATORS FOR TREATMENT OF A DISORDER OR DISEASE ASSOCIATED WITH BBB PERMEABILITY” (BioAge Labs, Inc., priority 2022, published 2024):
# Tests used:
# [1] = test system: human patient, iPSC-derived neurons; test: Neurons from patient derived induced pluripotent stem cells (iPSCs); assay type: cell-based; details: compared to cells not treated with BGE-105
# Source text: This study assesses the effect of BGE-105 (or media from other brain cells exposed to BGE-105, such as microglia and astrocytes) in human patient, iPSC-derived neurons improves a variety of functions associated with beneficial neuronal outcomes, including those listed below • i. proliferation and survival • ii. Autophagy • iii. synaptic plasticity • iv. ROS production
# [2] = test system: primary SOD1^G93A mouse astrocytes; test: Primary SOD1^G93A mouse astrocytes: cytokine release and NF-κB signaling; assay type: cell-based
# Source text: The study characterizes effects of BGE-105 on primary astrocytes derived from wildtype and SOD1^G93A mice in vitro. This includes measuring effects on gene expression, secretion of inflammatory cytokines, and glutamate uptake.
# The study utilizes primary mouse astrocyte and neuron cultures generated from the SOD1^G93A mouse model of familial ALS as previously described (Lundquist et al. 2019. Exercise induces region-specific remodeling of astrocyte morphology and reactive astrocyte gene expression patterns in male mice. Journal of Neuroscience Research, 97(9), 1081-1094) with some modifications. Briefly, whole spinal cords are resected from PNDO-4 (postnatal day) SOD1^G93A+ pups and wildtype littermates. […]
# Astrocytes from wildtype and SOD1^G93A mice are first studied in isolation to compare transcriptomic and cytokine release profiles. […] ACM (astrocyte-conditioned media) are analyzed for release of cytokines and neurotrophic factors using Mouse Proteome Profiler Arrays (R&D Systems), and commercially available ELISAs (for select cytokines from protein arrays). Astrocytic gene expression are analyzed by RT-qPCR, and astrocyte protein expression are analyzed by western blotting as previously described (Lundquist et al, 2022).
# wildtype motor neurons = test: Neurons exposed to SOD1^G93A astrocyte-conditioned media or co-cultured with SOD1^G93A astrocytes; assay type: cell-based, mouse
# Procedure: This study conducts co-culture experiments using SOD1^G93A astrocytes and wildtype motor neurons to determine effects of apelin signaling on rescue of neuronal survival and function. Co-culture experiments are conducted by measuring viability, neuronal homeostasis, and morphological endpoints.
# Neurons are isolated from mouse spinal cords as previously described in Example 12 above. Non-astrocytic flowthrough following column-based cell isolation (MACS) are collected and cultured in serum-free, neuron-selective media in 12- or 96-well plates for at least 14 days before experimentation. For specific selection of spinal cord motor neurons, wildtype C57BL/6J mouse PNDO or adult spinal cords are processed using published methods (Beaudet, 2015).
# Neurons are cultured for at least 14 days before the start of experimentation. First, ACM from wildtype or SOD astrocytes exposed to 250 nM BGE-105 (or vehicle) are added to neurons seeded in 96 well plates for 6, 12, 24, or 48 hours followed by analysis of neuronal survival using the ApoTox-Glo Triplex kit (Promega) to determine optimal exposure time. […]
compound,measurement,setting,value
"COc1cccc(OC)c1-n1c(NS(=O)(=O)[C@@H](C)[C@H](C)c2ncc(C)cn2)nnc1-c1cncc(C)c1 [BGE-105, (2S,3R)—N-(4-(2,6-dimethoxyphenyl)-5-(5-methyl-3-pyridinyl)-4H-1,2,4-triazol-3-yl)-3-(5-methyl-2-pyrimidinyl)-2-butanesulfonamide]","survival, differentiation and cellular functioning of stem-cell-derived neurons",[1],"improves overall survival, differentiation, and cellular functioning"
same,release of proinflammatory cytokines into astrocyte conditioned media (ACM),"[2]; 250 nM BGE-105, 24 hours",release less proinflammatory cytokines
same,NF-κB signaling activity,[2]; untreated versus BGE-105 treated SOD1^G93A astrocytes,changes to NF-κB signaling activity
same,neuron cell death caused by SOD1^G93A ACM,wildtype motor neurons; pretreatment of SOD1^G93A astrocytes with 250 nM BGE-105,attenuated
same,synaptic protein expression and neuronal structural integrity,"wildtype motor neurons; wildtype neurons cultured with SOD1^G93A astrocytes, 250 nM BGE-105",preserves synaptic protein expression and neuronal structural integrity
